Data taken from US12016834B2, “Small molecule inhibitors of SLC25A1” (GEORGETOWN UNIVERSITY, priority 2017, dated 2024).

What was measured:
Assay type in all cases: cell-based, human
[1] = tested on: H1299 cells; assay: Glycolysis: ECAR (Seahorse) and lactic acid levels
Procedure: (§1) Cells, reagents, antibodies, primers. The H1299 cell lines and other cell lines employed in this study were obtained from ATCC or from the tissue culture core facility at LCCC. Cells were grown in Dulbecco's Modified Eagle's Medium (DMEM, 25 mM glucose, with glutamine and pyruvate from Invitrogen; Carlsbad, CA) and supplemented with 10% fetal calf serum (FCS). […] The SLC25A1 specific shRNA vectors were purchased from Sigma. The vector expressing human SLC25A1 untagged or Flag-Myc epitope tagged were from Origene; Rockville, MD (#SC120727 and RC200657, respectively). The anti-SLC25A1 antibody used in immuno-blot was from Santa Cruz Biotech, #sc-86392 employed at 1:1000 dilution. Citrate, lactate, and PFK measurements were performed by using commercially available kits (Biovision (Milpitas, CA)).
(§2) Seahorse extracellular flux analyzer experiments. Cells derived from spheres or monolayer cultures were dissociated and plated overnight at 12,000 cells/well in DMEM with 10% FBS, 5 mM glucose, 1 mM pyruvate, 2 mM glutamine.
(§3) For the mitochondrial stress test, the media was replaced with DMEM without FBS or bicarbonate, containing 5 mM glucose, 1 mM pyruvate, 2 mM glutamine and placed in a CO2 free incubator at 37° C. for 1 hour, and then transferred to the Xf96 extracellular flux analyzer (Agilent; Santa Clara, CA). The program consisted of 3 measurements of OCR/ECAR before the injection of each drug: oligomycin (0.5 μM final concentration), FCCP (2 μM) and rotenone/antimycin (0.5 μM of each). For the glycolysis stress test, cells were plated overnight as above, and the media was washed twice the following day with DMEM without FBS, bicarbonate, glucose, glutamine or pyruvate, and incubated in this media in a CO2 free incubator with/without drug treatments at 37° C. for 4 hours. There were 3 measurements of OCR/ECAR before each injection: glucose (10 mM final concentration), oligomycin (0.5 […] (50 mM). For the analysis of glutamine oxidation, the protocol was the same as the glucose stress test, but with glutamine being the only compound injected (final concentration 4 mM) and OCR/ECAR measured for 60 minutes. When spheres were analyzed, they were dissociated with StemPro® Accutase® (Thermo Scientific; Waltham, MA) and plated under the same conditions as above as for the monolayers the day before the assay (H1299 spheres), or in stem cell media (See Stem Cell Media) with the wells coated in 15 μL of 2% geltrex diluted in DMEM:F12 (Thermo Scientific). The results were normalized to cell number.

[2] = tested on: phosphofructokinase (PFK); assay: Phosphofructokinase activity in cells; settings: 3 hours
Procedure: as §1

[3] = tested on: MP1 cells; assay: Seahorse OCR and ATP in patient-derived cells; settings: GMSC versus monolayer; treatment 3 hours
Procedure: (§4) Primary lung cancer cultures and GMSC. Surgical samples were minced and digested with dispase (50 U/ml) in DMEM media containing 5% serum for 1 hour. Pleural effusions were centrifuged, washed once in PBS, and then plated. All primary cultures were initially grown on 6-well plates pre-coated with 2% Geltrex (Life Technologies; Carlsbad, CA) and 1% Maxgel (Sigma Aldrich). Maxgel is a humanized matrix, native and non-denatured. The inclusion of Maxgel in the system enhanced the initial attachment of primary tumor cells, partially because Maxgel provides a more natural ECM conformational substrate. The day after plating, the media containing unattached cells was typically transferred to a fresh plate, in most of cases generating new attached cultures. The media (Stem Cell Media) is the DMEM/F12 (Thermo-Fisher #11320-033 basic media) supplemented with the following components: Insulin-Transferrin-Sodium selenite (ITS; 1:1000; Sigma #11884); glutamine (Thermo-Fisher) to 4 mM final concentration; sodium pyruvate (Thermo-Fisher) to 2 mM final concentration; rock inhibitor (Y-27632) 10 micrograms/mL; 2-5% Knock Out Serum Replacement (KNOSR, Thermo-Fisher #10828-028); 0.5% ALBUMAX-(Lipid enriched BSA; Thermo-Fisher #11020-021); N2 Supplement (Thermo-Fisher) 1:250; EGF (5 ng/ml; Peprotech); hFGF (20 ng/ml; Bechman); and IGF-1 (Peprotech; 10-20 ng/ml).
as §2, §3

[4] = tested on: MP2 cells; assay: Seahorse OCR and ATP in patient-derived cells
Procedure: as §4, §2, §3

[5] = tested on: MP1 cells; assay: Self-renewal and sphere forming in methylcellulose; settings: semi-solid media
Procedure: (§5) Self-renewal assays. Tumor cells cultured as spheroids were dissociated and diluted in 2× sphere media containing 1% methyl cellulose, which was previously dissolved in cold DMEM/F12 media. Either 200, 500, or 1000 cells were then plated in each 96 well and were incubated in the presence or absence of drugs, as indicated. The spheres were allowed to form for a period of a week to ten days, at which point they were counted. Six biological replicates were used for quantification of the results.
(§6) Primary lung cancer cultures and GMSC. Surgical samples were minced and digested with dispase (50 U/ml) in DMEM media containing 5% serum for 1 hour. Pleural effusions were centrifuged, washed once in PBS, and then plated. All primary cultures were initially grown on 6-well plates pre-coated with 2% Geltrex (Life Technologies; Carlsbad, CA) and 1% Maxgel (Sigma Aldrich). Maxgel is a humanized matrix, native and non-denatured. The inclusion of Maxgel in the system enhanced the initial attachment of primary tumor cells, partially because Maxgel provides a more natural ECM conformational substrate. The day after plating, the media containing unattached cells was typically transferred to a fresh plate, in most of cases generating new attached cultures. […]

[6] = tested on: MP2 cells; assay: Self-renewal and sphere forming in methylcellulose; settings: semi-solid media
Procedure: as §5, §6

[7] = tested on: MP1 cells; assay: Viability (Crystal Violet) and drug interaction (R index)
Procedure: (§7) Cellular proliferation and cytotoxicity assays. […] The cells were then washed with 1×PBS and fixed with cold 100% methanol at−20° C. for 20 minutes. Methanol was washed off and the cells were stained with 0.5% crystal violet dissolved in 25% methanol and water at 4° C. for 20 minutes. The staining was washed off using deionized (DI) water and the plate was dried overnight. On the second day, 100 mM sodium citrate in 50% ethanol and 50% water was added to the wells and absorbance at 550 nm was measured and corrected with readings at 405 nm. In other experiments, cell viability was assessed by trypan blue exclusion and visual count of the live cells was performed.
(§8) Statistical methods for drug interactions. […] Sexp/Sobs=1.0 denotes an additive interaction, while >1.0 denotes a synergistic interaction. R index values approaching 2.0 are indicative of strong synergy.

[8] = tested on: MP2 cells; assay: as above; settings: CTPI-2 with either cisplatin or AZD9291, 5 days
Procedure: as §7, §8

[9] = tested on: MP3 cells; assay: as above; settings: CTPI-2 with either cisplatin or AZD9291, 5 days
Procedure: as §7, §8

[10] = tested on: MP1 cells; assay: Apoptosis by annexin V and PI flow cytometry
Procedure: Flow cytometry. Tumor cells were trypsinized and washed in 1×PBS. The cells were then stained with the antibodies of choice: CD166-PE (Biolegend), CD133-647 (Biolegend), or CD44 (Biolegend), in 1% BAS-PBS. The cell cycles of monolayers or spheres of the cells were analyzed by fixing the cells in cold 75% ethanol. The annexin V (Biolegend) and propidium iodide (Biolegend) experiments were carried out.

For O=C(O)c1ccccc1NS(=O)(=O)c1ccc(Cl)c([N+](=O)[O-])c1 [CTPI-2], the lactic acid levels ([1]; monolayer cultures) was “increase in lactic acid levels”, the ECAR rates ([1]; monolayer cultures, after 10 mM glucose injection) was “starkly induced” and the “ECAR and lactic acid levels” value ([1]; spheres) was “remained unchanged or were slightly diminished”. For the same compound, the PFK activity ([2]; monolayer differentiated cultures) was “enhanced”, the PFK activity ([2]; spheres) was “unchanged” and the “increase of oxygen consumption rates, basal, SRC and mitochondrial ATP output in GMSC cells” value [3] was “reverted by CTPI-2 more prominently in CSCs than in monolayer cultures”. For the same compound, the “increase of oxygen consumption rates, basal, SRC and mitochondrial ATP output in GMSC cells” value ([4]; GMSC versus monolayer, treatment 3 hours) was “reverted by CTPI-2 more prominently in CSCs than in monolayer cultures”, the “basal respiration, SRC and ATP production in cisplatin treated cells” value ([4]; monolayer cells exposed to cisplatin (FIG. 15A)) was “blocked basal respiration, SRC and ATP production” and the “self-renewal and sphere forming ability” value [5] was “blunted self-renewal and sphere forming ability”. For the same compound, the “self-renewal and sphere forming ability” value [6] was “blunted self-renewal and sphere forming ability”, the “re-sensitization, type of drug interaction (R index)” value (from here on “re-sensitization, type … (R index)”) ([7]; CTPI-2 with either cisplatin or AZD9291, 5 days) was “starkly synergistic” and the “sensitivity of a single cisplatin-resistant clone” value ([7]; co-treatment with cisplatin (FIG. 15D)) was “re-sensitized to cisplatin”. For the same compound, the “re-sensitization, type … (R index)” value [8] was “starkly synergistic”, the “re-sensitization, type … (R index)” value [9] was “starkly synergistic” and the apoptosis ([10]; co-treated with cisplatin and CTPI-2) was “strong pro-apoptotic effect”. The apoptosis ([10]; drug alone) was “did not induce apoptosis”.
